In patent US8618133B2, “Aralkyl alcohol pyridine derivative compounds and the use thereof as medicaments for treating depression” (priority 2008, dated 2013):
Read-outs that look alike come from different tables or passages of the source.

Assays:
[1] = target: T1, reuptake of 5-serotonin (5-HT) by brain synaptosomes (Rattus norvegicus, UniProt P31652); assay: [3H]5-HT reuptake by rat brain synaptosomes; type: biochemical; conditions: for inhibiting activity on the reuptake of 5-HT (in words): concentration 10 μmol/L, effectiveness equivalent to venlafaxine and DOV21947; for Inhibition of reuptake of 5-HT: rat prefrontal cortex synaptosomes, 0.1 mmol/L for control drug and drug to be detected
T1 construct: taking prefrontal cortex for the [^3H]5-HT and [^3H]NA reuptake experiment; from tissue; host or cells: rat brain prefrontal cortex synaptosomes

[2] = target: T2, reuptake of norepinephrine (NA) by brain synaptosomes (Rattus norvegicus, UniProt Q63380); assay: [3H]NA reuptake by rat brain synaptosomes; type: biochemical; conditions: for inhibiting activity on the reuptake of NA (in words): concentration 10 μmol/L, effectiveness equivalent to venlafaxine and DOV21947; for Inhibition of reuptake of NA / inhibition at 100 µM: rat prefrontal cortex synaptosomes, 0.1 mmol/L for control drug and drug to be detected
T2 construct: taking prefrontal cortex for the [^3H]5-HT and [^3H]NA reuptake experiment; from tissue; host or cells: rat brain prefrontal cortex synaptosomes

[3] = target: T3, reuptake of dopamine (DA) by brain synaptosomes (Rattus norvegicus, UniProt P23977); assay: [3H]DA reuptake by rat brain synaptosomes; type: biochemical; conditions: for inhibiting activity on the reuptake of DA (in words): concentration 10 μmol/L, effectiveness equivalent to venlafaxine and DOV21947; for Inhibition of reuptake of DA / inhibition at 100 µM: rat striatum synaptosomes, 0.1 mmol/L for control drug and drug to be detected
T3 construct: taking striatum for the [^3H]DA reuptake experiment; from tissue; host or cells: rat brain striatum synaptosomes

mice [4] = assay: Acute toxicity, single dosage LD50 to mice; type: in vivo; conditions: Bliss statistics, preliminary screening
[5] = tested on: Salmonella typhimurium histidine auxotroph mutant TA97, TA98, TA100 and TA102; type: cell-based
Description: Strains: Salmonella typhimurium histidine auxotroph mutant TA97, TA98, TA100 and TA102.
The experimental method: the method reported in Maron D M et al: (1983) Mutay Res. 113, 173-216 is used;
The experimental result: the experiment comprises two parts: −S9 and +S9.

mice [6] = assay: forced swimming test of mice (immobility); type: in vivo; conditions: for Immobility time: mice, swimming test

T2 sequence (Q63380 1-617): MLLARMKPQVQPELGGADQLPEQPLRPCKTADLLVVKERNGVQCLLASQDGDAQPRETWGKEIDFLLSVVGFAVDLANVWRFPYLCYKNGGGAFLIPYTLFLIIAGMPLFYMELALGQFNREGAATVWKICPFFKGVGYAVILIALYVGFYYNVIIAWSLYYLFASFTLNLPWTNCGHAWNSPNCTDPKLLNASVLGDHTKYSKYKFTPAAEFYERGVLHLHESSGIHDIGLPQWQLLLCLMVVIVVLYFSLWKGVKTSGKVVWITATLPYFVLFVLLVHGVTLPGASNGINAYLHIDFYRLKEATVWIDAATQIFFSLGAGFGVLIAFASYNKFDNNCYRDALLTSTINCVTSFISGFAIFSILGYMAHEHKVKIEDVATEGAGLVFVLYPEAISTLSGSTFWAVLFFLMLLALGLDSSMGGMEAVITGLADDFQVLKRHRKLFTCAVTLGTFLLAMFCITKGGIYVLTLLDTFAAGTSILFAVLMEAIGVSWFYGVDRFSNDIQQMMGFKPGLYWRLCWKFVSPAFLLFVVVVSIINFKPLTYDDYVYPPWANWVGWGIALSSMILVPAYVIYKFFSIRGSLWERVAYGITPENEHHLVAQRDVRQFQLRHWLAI
T1 sequence (P31652 whole entry): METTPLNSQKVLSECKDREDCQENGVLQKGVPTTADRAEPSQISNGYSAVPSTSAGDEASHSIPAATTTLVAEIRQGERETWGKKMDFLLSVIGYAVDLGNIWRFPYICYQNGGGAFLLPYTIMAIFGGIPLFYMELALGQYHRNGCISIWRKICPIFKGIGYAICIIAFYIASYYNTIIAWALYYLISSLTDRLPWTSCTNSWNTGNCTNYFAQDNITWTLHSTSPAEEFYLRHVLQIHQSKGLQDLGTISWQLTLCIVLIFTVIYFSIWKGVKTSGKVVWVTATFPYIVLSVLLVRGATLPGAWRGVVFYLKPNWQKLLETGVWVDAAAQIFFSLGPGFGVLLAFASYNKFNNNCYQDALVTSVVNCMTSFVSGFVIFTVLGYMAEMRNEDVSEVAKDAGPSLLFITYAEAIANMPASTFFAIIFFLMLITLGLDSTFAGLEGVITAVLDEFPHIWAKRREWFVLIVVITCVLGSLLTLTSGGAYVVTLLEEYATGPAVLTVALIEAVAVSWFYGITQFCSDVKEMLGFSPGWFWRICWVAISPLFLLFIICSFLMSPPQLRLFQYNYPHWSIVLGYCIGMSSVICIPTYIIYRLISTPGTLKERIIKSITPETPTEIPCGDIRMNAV
T3 sequence (P23977 whole entry): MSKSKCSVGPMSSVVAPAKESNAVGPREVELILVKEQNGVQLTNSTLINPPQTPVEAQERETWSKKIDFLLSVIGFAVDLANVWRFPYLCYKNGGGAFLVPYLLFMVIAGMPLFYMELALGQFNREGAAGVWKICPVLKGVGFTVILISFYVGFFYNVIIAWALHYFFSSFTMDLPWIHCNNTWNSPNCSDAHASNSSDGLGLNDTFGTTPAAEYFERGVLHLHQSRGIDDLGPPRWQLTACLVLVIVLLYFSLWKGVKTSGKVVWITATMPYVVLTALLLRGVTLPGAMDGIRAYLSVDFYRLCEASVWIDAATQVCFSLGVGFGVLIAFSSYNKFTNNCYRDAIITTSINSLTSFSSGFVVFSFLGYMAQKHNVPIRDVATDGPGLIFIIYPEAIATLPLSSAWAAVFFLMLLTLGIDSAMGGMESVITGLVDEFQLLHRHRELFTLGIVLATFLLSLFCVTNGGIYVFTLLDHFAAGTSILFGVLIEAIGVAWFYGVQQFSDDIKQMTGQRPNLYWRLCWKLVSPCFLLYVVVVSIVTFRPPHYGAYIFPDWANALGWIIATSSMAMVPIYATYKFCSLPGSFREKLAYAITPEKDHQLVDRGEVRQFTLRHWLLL

Structure (SMILES) | inhibiting activity on the reuptake of 5-HT (in words) [1] | Inhibition of reuptake of 5-HT [1] | inhibiting activity on the reuptake of NA (in words) [2] | Inhibition of reuptake of NA [2] | inhibiting activity on the reuptake of DA (in words) [3] | Inhibition of reuptake of DA [3] | further results
COc1ccc2cc([C@@H](O)[C@H](C)N3CCC(Cc4ccccc4)CC3)ccc2c1Cl [Compound V-2, Erythro-4-benzyl-N-[1-methyl-2-hydroxy-2-(5-chloro-6-methoxynaphthalene-2-yl)]ethylpiperidine] | stronger inhibiting activity | 105.6 ± 0.9 | stronger inhibiting activity | 65.3 ± 6.7 | stronger inhibiting activity | 93.1 ± 2.0 | –
COc1ccc2cc([C@@H](O)[C@H](C)N3CCC(O)(Cc4ccccc4)CC3)ccc2c1Cl [Compound V-14, Erythro-4-benzyl-4-hydroxy-N-[1-methyl-2-hydroxy-2-(5-chloro-6-methoxynaphthalene-2-yl)]ethylpiperidine] | stronger inhibiting activity | 94.9 ± 1.2 | stronger inhibiting activity | 93.0 ± 20.8 | stronger inhibiting activity | 91.0 ± 0.9 | LD50 (mice [4]): 1150 mg/kg; bacteriostatic effect ([5]; 5000 μg/dish, TA97, S9 added testing system): have bacteriostatic effect; bacteriostatic effect ([5]; 5000 μg/dish, non-S9 testing system): have bacteriostatic effect; Ames test, reverse mutation ([5]; all tested dosages, with or without S9): negative; bacteriostatic effect ([5]; other dosages, all strains): do nut have a bacteriostatic effect; in vivo anti-depression activity (in words) (mice [6]; forced swimming test of mice, effect similar to venlafaxine): strong in vivo anti-depression activity; Immobility time (mice [6]; dosage 6.9 mg/kg): 52.8 ± 32.0 s; Immobility time (mice [6]; dosage 13.8 mg/kg): 82.1 ± 62.0 s; Immobility time (mice [6]; dosage 27.6 mg/kg): 74.9 ± 37.8 s
COc1ccc2cc(C(O)CCN3CCC(=Cc4ccccc4)CC3)ccc2c1Cl (centres unmarked) [Compound V-32, 4-benzyl-methylene-N-[3-hydroxy-3-(5-chloro-6-methoxynaphthalene-2-yl)]propylpiperidine] | stronger inhibiting activity | 104.4 ± 2.0 | stronger inhibiting activity | 36.6 ± 19.1 | stronger inhibiting activity | 92.4 ± 7.6 | –
COc1ccc2cc(C(O)C(C)N3CCC(=Cc4ccc(F)cc4)CC3)ccc2c1Cl (centres unmarked) [Compound V-34, 4-(4-fluorobenzyl)-methylene-N-[1-methyl-2-hydroxy-2-(5-chloro-6-methoxynaphthalene-2-yl)]ethyl-piperidine] | – | 106.3 ± 2.3 | – | 18.8 ± 13.4 | – | 99.1 ± 4.3 | –
COc1ccc2cc(C(O)C(C)N3CCC(=Cc4ccccc4)CC3)ccc2c1Cl (centres unmarked) [Compound V-38, 4-benzyl-methylene-N-[1-methyl-2-hydroxy-2-(5-chloro-6-methoxynaphthalene-2-yl)]ethyl-piperidine] | stronger inhibiting activity | 107.0 ± 0.5 | stronger inhibiting activity | 87.4 ± 5.5 | stronger inhibiting activity | 99.6 ± 2.9 | –
COc1ccc2cc([C@@H](O)[C@H](C)N3CC=C(Cc4ccccc4)CC3)ccc2c1Cl [Compound V-40, Erythro-4-benzyl-N-[1-methyl-2-hydroxy-2-(5-chloro-6-methoxynaphthalene-2-yl)]ethyl-1,2,3,6-tetrahydropyridine] | – | 99.5 ± 1.6 | – | 62.6 ± 15.3 | – | 50.7 ± 21.8 | –
COc1ccc2cc([C@@H](O)[C@H](C)N3CCC(OCc4ccccc4)CC3)ccc2c1Cl [Compound V-50, Erythro-4-benzyloxy-N-[1-methyl-2-hydroxy-2-(5-chloro-6-methoxynaphthalene-2-yl)]ethylpiperidine] | – | 91.8 ± 1.6 | – | 41.8 ± 7.3 | – | 23.1 ± 16.8 | –
Clc1ccc([C@]23CNC[C@H]2C3)cc1Cl [DOV 21947, reference compound] | – | – | – | – | – | – | inhibition at 100 µM ([1]; read-out: Inhibition of reuptake of 5-HT): 109 ± 3.8%; inhibition at 100 µM [2]: 61.9 ± 6%; inhibition at 100 µM [3]: 104 ± 4.2%
COc1ccc(C(CN(C)C)C2(O)CCCCC2)cc1 (centres unmarked) [venlafaxine, reference compound] | – | – | – | – | – | – | inhibition at 100 µM [2]: 46.4 ± 4.6%; Immobility time (mice [6]; dosage 4.56 mg/kg): 57.1 ± 37.8 s; Immobility time (mice [6]; dosage 9.12 mg/kg): 77.4 ± 47.2 s; Immobility time (mice [6]; dosage 18.24 mg/kg): 80.8 ± 46.8 s; inhibition at 100 µM [3]: 48.6 ± 4.1%
